Patent EP4793271A1, “NEUROPROTECTIVE AGENT” (National Center of Neurology and Psychiatry, priority 2023, dated 2025)

How the values were obtained:
[1] = test system: primary cultured cells of mouse fetus-derived dorsal root ganglia (DRGs); test: Suppression of axonal degeneration after axotomy in DRG explant culture; format: cell-based; details: Mus musculus; minimum concentration at which axonal degeneration was suppressed (DI 0.3 or less); 24 hours after axotomy; read-out: Evaluation on protection against degeneration
Method in brief: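 Embryonic ICR mouse DRG explants were cultured 7–8 days in nicotinamide-free neuronal medium with NGF, then axotomized by removing the cell bodies. Compound (100 pM–10 µM final, 0.1% DMSO) was added within 30 min, and neurites were imaged 24 h later. The result is the lowest concentration giving degeneration index ≤0.3.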

[2] = target: T1, nicotinamide phosphoribosyl transferase (NAMPT) (Homo sapiens, UniProt P43490); test: NAMPT activity measurement (NMN fluorescence detection); format: biochemical; details: NAMPT recombinant protein, 10 µM Nam; for IC50: read-out: Evaluation on NAMPT inhibitory
T1 construct: purchased Medical & Biological Laboratories Co., Ltd. (MBL)
T1 sequence (P43490 whole entry, species assumed): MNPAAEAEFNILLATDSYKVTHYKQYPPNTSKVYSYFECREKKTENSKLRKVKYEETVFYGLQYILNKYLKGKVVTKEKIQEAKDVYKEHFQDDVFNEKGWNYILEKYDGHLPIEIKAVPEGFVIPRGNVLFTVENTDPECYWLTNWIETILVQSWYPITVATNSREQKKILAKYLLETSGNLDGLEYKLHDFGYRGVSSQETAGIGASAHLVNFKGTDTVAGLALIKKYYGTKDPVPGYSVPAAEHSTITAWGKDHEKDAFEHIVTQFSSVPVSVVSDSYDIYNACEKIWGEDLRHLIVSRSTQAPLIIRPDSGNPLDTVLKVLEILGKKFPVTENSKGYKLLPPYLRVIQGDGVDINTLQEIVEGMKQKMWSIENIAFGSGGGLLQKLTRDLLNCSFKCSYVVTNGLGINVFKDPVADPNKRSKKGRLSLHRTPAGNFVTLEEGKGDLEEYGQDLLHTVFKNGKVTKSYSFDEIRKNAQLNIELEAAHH
Procedure: The compound of the present invention was evaluated for the ability to influence the activity of nicotinamide phosphoribosyl transferase (NAMPT) which is an enzyme that metabolizes nicotinamide (Nam), not the target SARM1.
The enzymatic reaction of NAMPT was carried out by adding NAMPT recombinant protein (manufactured by Medical & Biological Laboratories Co., Ltd. (MBL)) to a reaction solution containing the substrate Nam, phosphoribosylpyrophosphate (PRPP), ATP, and the like (composition: […] (pH = 7.4), 2 µM ATP, 0.5 µM PRPP, 0.02% BSA, 2 µM DTT, 1.2 µM MgCl2, and 10 µM Nam). The amount of the reaction product NMN was detected by detecting the fluorescent signal of a fluorescent substance obtained through the reaction of 2-acetylbenzofuran with NMN using SpectraMax M2 (Molecular Devices) (excitation: 421 nm, fluorescence: 480 nm) (Moriya et al, Chemical Communications 2013, 49 11500). The test compound was added at final concentrations of 10 µM, 3 µM, 1 µM, 300 nM, 100 nM, 30 nM, 10 nM, and 3 nM to the NMN synthesis reaction system described above. The NMN-derived fluorescent signal was normalized against a control group and plotted as the function of the test compound concentrations, and the compound was evaluated for its NAMPT inhibitory effect by calculating IC50.
The IC50 value was evaluated as ∘ for ≥1 µM and as Δ for ≥0.1 µM.

hSARM1 = target: T2, hSARM1 (Homo sapiens, UniProt Q6SZW1); test: Human SARM1 activity measurement in HEK293 cells transiently transfected with ΔN-hSARM1 (PC6 fluorescent probe); format: cell-based; design: expressed in transfected cells; host or cells: HEK293, pcDNA3 expression vector; details: inhibition rate; compound 30 µM; PC6 50 µM; HEK293 cells expressing ΔN-hSARM1; approximately 48 hours from transfection; read-out: Evaluation on hSARM1 inhibitory
T2 sequence (Q6SZW1 28-724): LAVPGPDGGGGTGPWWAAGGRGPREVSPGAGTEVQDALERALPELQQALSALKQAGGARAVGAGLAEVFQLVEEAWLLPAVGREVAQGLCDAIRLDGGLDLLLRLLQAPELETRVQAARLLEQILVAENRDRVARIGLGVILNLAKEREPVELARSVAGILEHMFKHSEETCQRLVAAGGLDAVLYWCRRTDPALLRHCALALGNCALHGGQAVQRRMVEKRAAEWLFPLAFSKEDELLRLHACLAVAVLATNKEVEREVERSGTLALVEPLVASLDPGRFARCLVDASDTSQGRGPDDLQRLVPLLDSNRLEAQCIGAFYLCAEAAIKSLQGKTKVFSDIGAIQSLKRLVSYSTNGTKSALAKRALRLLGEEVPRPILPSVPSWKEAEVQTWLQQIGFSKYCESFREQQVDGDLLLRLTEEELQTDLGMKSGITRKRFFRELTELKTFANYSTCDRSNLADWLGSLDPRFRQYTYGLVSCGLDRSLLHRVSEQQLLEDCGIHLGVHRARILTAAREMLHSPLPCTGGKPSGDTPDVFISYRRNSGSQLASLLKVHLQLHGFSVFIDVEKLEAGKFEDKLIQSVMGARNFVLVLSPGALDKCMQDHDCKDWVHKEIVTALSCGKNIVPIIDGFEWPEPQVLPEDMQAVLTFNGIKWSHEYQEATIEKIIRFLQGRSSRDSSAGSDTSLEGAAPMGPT
Method in brief: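 HEK293 cells in nicotinamide-free DMEM with 5 μM nicotinamide, transiently transfected with mitochondrial-targeting-deleted ΔN-hSARM1; PC6 base-exchange fluorescent probe (50 μM) plus compound (30 μM) added ~8 h post-transfection. Fluorescence (ex 405/em 525 nm) read ~48 h from transfection; inhibition % versus transfected DMSO control, untransfected background subtracted.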

| SMILES | minimal effective concentration [1] | Evaluation on NAMPT inhibitory [2] | inhibition at 30 µM (hSARM1) | IC50 [2] |
| --- | --- | --- | --- | --- |
| O=C(/C=C/c1cccnc1)NCCOCCNC(=O)/C=C/c1cccnc1 [compound 37] | 0.01 to 0.1 µM | ○ | > 75% | – |
| O=C(NCCOCCOCCNC(=O)c1cccnc1)c1cccnc1 [compound 34] | ≤ 0.01 µM | ○ | > 75% | – |
| O=C(NCc1ccc(NC(=O)c2ccc(Cl)cc2)nc1)c1cccnc1 [Compound 118] | ≤ 0.01 µM | ○ | > 75% | – |
| O=C(NCCCNS(=O)(=O)c1ccccc1[N+](=O)[O-])c1cccnc1 [compound 63] | 0.1 to 1 µM | ○ | > 10% | – |
| O=C(NCCCCCCN1CCN(CCOC(=O)c2cccnc2)CC1)c1cccnc1 [compound 95] | ≤ 0.01 µM | ○ | > 50% | – |
| O=C(NCc1ccc(NC(=O)c2ccc(OC(F)(F)F)cc2)nc1)c1cccnc1 [compound 87] | ≤ 0.01 µM | ○ | > 50% | – |
| O=C(NCCCCCCCCOCCOCCOCCO)c1cccnc1 [compound 8] | ≤ 0.01 µM | – | > 50% | ≥ 100 nM |
| O=C(/C=C/c1ccc(C(F)(F)F)cc1)Nc1ccc(CNC(=O)c2cccnc2)cn1 [Compound 167] | ≤ 0.01 µM | ○ | > 75% | – |
| CC(=O)NCc1ccc(OCCOCCNC(=O)c2cccnc2)cc1 [compound 21] | ≤ 0.01 µM | ○ | > 50% | – |
| CC(=O)NCc1ccc(OCCCNC(=O)c2cccnc2)cc1 [compound 20] | 0.01 to 0.1 µM | ○ | > 75% | – |
| COc1cccc(OCCNC(=O)/C=C/c2cccnc2)c1 [compound 19] | ≤ 0.01 µM | – | > 75% | ≥ 100 nM |
| N#Cc1ccc(CC(=O)Nc2ccc(CNC(=O)c3cccnc3)cn2)cc1 [Compound 154] | ≤ 0.01 µM | – | > 75% | ≥ 100 nM |
| O=C(NCc1ccc(NC(=O)c2ccc(F)c(F)c2)nc1)c1cccnc1 [Compound 137] | ≤ 0.01 µM | ○ | > 75% | – |
| O=C(NCc1ccc(NC(=O)c2ccccc2)c(Cl)c1)c1cccnc1 [Compound 111] | ≤ 0.01 µM | ○ | > 10% | – |
| Cc1ccc(C(=O)Nc2ccc(CNC(=O)c3cccnc3)cn2)cc1 [Compound 119] | ≤ 0.01 µM | ○ | > 75% | – |
| COc1cccc(OCCOCCNC(=O)c2cccnc2)c1 [compound 99] | 0.01 to 0.1 µM | ○ | > 50% | – |
| COc1ccc(C(=O)Nc2ccc(CNC(=O)c3cccnc3)cn2)cc1 [Compound 129] | ≤ 0.01 µM | ○ | > 75% | – |
| O=C(NCCCOc1ccc(CNC(=O)c2ccccc2)cc1)c1cccnc1 [compound 15] | ≤ 0.01 µM | – | > 75% | ≥ 100 nM |
| O=C(NCc1ccc(NC(=O)c2ccc(-c3ccccc3)cc2)nc1)c1cccnc1 [Compound 128] | ≤ 0.01 µM | ○ | > 75% | – |
| CC(C)C(=O)N(C(=O)C(C)C)c1ccc(CNC(=O)c2cccnc2)cn1 [Compound 172] | ≤ 0.01 µM | ○ | > 10% | – |
| CC(C)CCC(=O)Nc1ccc(CNC(=O)c2cccnc2)cn1 [Compound 164] | ≤ 0.01 µM | – | > 75% | ≥ 100 nM |
| N#Cc1ccc(/C=C/C(=O)Nc2ccc(CNC(=O)c3cccnc3)cn2)cc1 [Compound 166] | ≤ 0.01 µM | ○ | > 75% | – |
